Source: patent US20260325605A1, “INHIBITORS” (Zealand Pharma A/S, priority 2022, published 2026)

Tests used:
[1] = Example 6: Pharmacokinetic characterisation after s.c. administration; assay type: in vivo, rat (Sprague Dawley or Wistar); conditions: rat, 70 nmol/kg; for AUCINF / Cmax: plasma; for T1/2: plasma terminal elimination half-life
Protocol: Sprague Dawley or Wistar rats (males with a body weight of approximately 250-350 g) were given a single subcutaneous (s.c.) injection of each peptide to be tested.
Following s.c. administration of the selected peptides (dose 70 nmol/kg, dosing volume either 2 or 5 mL/kg), blood samples were drawn at 15 min, 30 min, 45 min, 60 min, 90 min, 2 h, 3 h, 4 h post-dose. At each sampling time point, samples from the rats were drawn by sublingual bleeding or by tail cut. After last sampling the rats were sacrificed by O2/CO2 anaesthesia. The dosing vehicle was 10 mM phosphate, 0.8% NaCl, 0.05% Polysorbate 20 (pH 6.0).
Plasma samples were analyzed after solid phase extraction (SPE) by liquid chromatography mass spectrometry (LC-MS/MS). Mean plasma concentrations were used for calculation of the pharmacokinetic parameters using the non-compartmental approach in Phoenix WinNonlin 6.4 or a later version. […]. AUCinf is the area under the plasma concentration−time curve extrapolated to infinity (AUCinf=AUClast+Clast/λz, where Clast is the last observed plasma concentration). Cmax is the maximum observed concentration, occurring at Tmax.

Kv1.6 = target: T1, Kv1.6 (Homo sapiens, UniProt P17658); experiment: Patch clamp assay (QPatch), Kv1.6; assay type: cell-based; conditions: for IC50: QPatch, CHO cells stably expressing human Kv1.6, read-out: Potency IC50, Kv1.6; for Selectivity Kv1.6/Kv1.3: ratio of IC50 Kv1.6/Kv1.3
T1 construct: expressed in transfected cells
T1 sequence (P17658 whole entry): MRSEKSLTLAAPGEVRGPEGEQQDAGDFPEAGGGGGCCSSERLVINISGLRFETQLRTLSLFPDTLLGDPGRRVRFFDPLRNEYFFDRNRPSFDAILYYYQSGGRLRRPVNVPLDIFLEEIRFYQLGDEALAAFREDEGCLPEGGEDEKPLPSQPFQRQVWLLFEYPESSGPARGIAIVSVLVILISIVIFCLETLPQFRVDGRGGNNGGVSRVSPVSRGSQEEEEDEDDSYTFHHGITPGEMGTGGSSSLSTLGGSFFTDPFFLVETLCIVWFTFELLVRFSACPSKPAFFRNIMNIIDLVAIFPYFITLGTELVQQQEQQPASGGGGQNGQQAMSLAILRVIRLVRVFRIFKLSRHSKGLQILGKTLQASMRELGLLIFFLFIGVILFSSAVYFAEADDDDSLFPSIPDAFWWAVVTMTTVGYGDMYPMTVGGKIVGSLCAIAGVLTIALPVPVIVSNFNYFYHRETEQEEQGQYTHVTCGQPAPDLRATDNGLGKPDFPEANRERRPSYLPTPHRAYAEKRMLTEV

Kv1.1 = target: T2, Kv1.1 (Homo sapiens, UniProt Q09470); experiment: Patch clamp assay (QPatch), Kv1.1; assay type: cell-based; conditions: for IC50: QPatch, CHO cells stably expressing human Kv1.1, read-out: Potency IC50, Kv1.1; for Selectivity Kv1.1/Kv1.3: ratio of IC50 Kv1.1/Kv1.3
T2 construct: expressed in transfected cells
T2 sequence (Q09470 whole entry): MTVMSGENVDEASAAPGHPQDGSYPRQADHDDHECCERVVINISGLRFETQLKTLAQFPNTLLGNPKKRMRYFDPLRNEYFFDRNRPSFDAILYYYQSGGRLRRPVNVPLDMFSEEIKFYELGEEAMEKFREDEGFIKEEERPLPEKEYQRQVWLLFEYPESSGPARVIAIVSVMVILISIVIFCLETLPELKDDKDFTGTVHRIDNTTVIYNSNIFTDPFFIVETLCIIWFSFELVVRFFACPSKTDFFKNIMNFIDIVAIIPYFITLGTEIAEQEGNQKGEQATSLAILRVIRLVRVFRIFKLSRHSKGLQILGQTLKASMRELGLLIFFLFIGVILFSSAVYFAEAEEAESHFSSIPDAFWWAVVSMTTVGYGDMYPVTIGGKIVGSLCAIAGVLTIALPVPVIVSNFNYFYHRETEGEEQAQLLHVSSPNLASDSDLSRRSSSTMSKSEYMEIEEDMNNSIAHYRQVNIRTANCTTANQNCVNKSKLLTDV
Protocol: Selectivity of Kv1.3 inhibitor peptides for Kv1.3 over other potassium ion channels (Kv1.1, Kv1.2 and Kv1.6) was determined using patch clamp assay.
Chinese Hamster Ovary (CHO) cell lines stably expressing exogenous human α-subunits of each potassium ion channel were grown and passaged under standard culture conditions.
The automated, chip-based planar patch clamp device QPatch® was used to quantitate the ionic currents. All recordings were made in the conventional whole-cell configuration after establishment of gigaohm seals. […] During experiments 0.1% (v/v) BSA was included as a vehicle in all external recording solutions. Currents were elicited from a holding potential of −80 mV using a voltage protocol, which shifted the voltage to 30 mV for 500 ms every 15 s.
Concentration-response relationships were established by cumulatively applying seven escalating concentrations of test sample to an individual cell with a recording period of 2 min per compound application.
The efficacy was determined as the mean charge for the last three sweeps at the end of each concentration application period from the cursor positions. The percent inhibition for each test dose application period was calculated as the reduction in mean cursor value (charge) relative to the cursor value measured at the end of the vehicle period and used to calculate the IC50 from the concentration response curve.

Kv1.2 = target: T3, Kv1.2 (Homo sapiens, UniProt P16389); experiment: Patch clamp assay (QPatch), Kv1.2; assay type: cell-based; conditions: for IC50: QPatch, CHO cells stably expressing human Kv1.2, read-out: Potency IC50, Kv1.2; for Selectivity Kv1.2/Kv1.3: ratio of IC50 Kv1.2/Kv1.3
T3 construct: expressed in transfected cells
T3 sequence (P16389 whole entry): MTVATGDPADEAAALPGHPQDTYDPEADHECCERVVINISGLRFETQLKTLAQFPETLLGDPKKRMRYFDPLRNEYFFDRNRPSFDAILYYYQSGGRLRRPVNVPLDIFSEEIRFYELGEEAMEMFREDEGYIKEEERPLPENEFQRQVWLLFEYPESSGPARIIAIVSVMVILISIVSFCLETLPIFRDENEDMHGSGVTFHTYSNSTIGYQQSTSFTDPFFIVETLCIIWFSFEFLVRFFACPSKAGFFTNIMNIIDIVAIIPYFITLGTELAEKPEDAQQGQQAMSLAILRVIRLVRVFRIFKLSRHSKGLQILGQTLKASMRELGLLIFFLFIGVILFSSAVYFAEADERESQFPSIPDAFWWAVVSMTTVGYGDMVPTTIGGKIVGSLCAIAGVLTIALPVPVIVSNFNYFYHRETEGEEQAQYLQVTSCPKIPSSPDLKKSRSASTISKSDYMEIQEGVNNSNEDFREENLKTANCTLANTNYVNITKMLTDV

Kv1.3 = target: T4, Kv1.3 (Homo sapiens, UniProt P22001); experiment: Patch clamp assay (QPatch), Kv1.3; assay type: cell-based; conditions: CHO cells stably expressing human Kv1.3, read-out: Potency IC50, Kv1.3
T4 construct: expressed in transfected cells
T4 sequence (P22001 whole entry): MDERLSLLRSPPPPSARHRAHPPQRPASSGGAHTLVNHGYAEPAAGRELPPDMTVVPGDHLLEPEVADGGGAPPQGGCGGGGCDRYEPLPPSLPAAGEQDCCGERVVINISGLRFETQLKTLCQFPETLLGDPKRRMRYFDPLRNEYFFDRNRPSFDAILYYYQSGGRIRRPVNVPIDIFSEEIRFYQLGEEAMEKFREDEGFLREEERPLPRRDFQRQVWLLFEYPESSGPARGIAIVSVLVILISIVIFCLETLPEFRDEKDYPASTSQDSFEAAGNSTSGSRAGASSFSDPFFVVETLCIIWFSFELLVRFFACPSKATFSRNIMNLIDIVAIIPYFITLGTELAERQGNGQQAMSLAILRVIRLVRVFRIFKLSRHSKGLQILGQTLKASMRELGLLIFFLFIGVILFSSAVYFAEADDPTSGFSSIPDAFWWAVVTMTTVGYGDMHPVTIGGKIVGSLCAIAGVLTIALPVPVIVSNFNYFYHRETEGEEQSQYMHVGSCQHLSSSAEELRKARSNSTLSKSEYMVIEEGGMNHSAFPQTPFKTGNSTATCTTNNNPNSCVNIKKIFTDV

[2] = test system: T-cell activation in rat whole blood; experiment: Example 4: IL-17A release in thapsigargin stimulated rat whole blood; assay type: cell-based, rat (Lewis or Sprague-Dawley); conditions: 24 Hr, at least 2 replicates, unit inferred, read-out: IC50 (inhibition of IL-17A release)
Procedure, shortened: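 Heparinised whole blood from naïve Lewis or Sprague-Dawley rats preincubated ≥5 min at RT with peptide, then stimulated with thapsigargin (40 μM stock added as one quarter of well volume) for 24 h at 37 °C. Supernatant IL-17A measured by ELISA; IC50 from curves normalised to stimulated and unstimulated controls, ≥2 replicates.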

Substance	AUCINF [1]	Cmax [1]	T1/2 [1]	IC50 (Kv1.6)	Selectivity Kv1.6/Kv1.3 (Kv1.6)	IC50 (Kv1.1)	Selectivity Kv1.1/Kv1.3 (Kv1.1)	IC50 (Kv1.2)	Selectivity Kv1.2/Kv1.3 (Kv1.2)	IC50 (Kv1.3)	IC50 [2]
H-MDMRC(1)SASVEC(2)KQKC(3)LKAIGSIFGKC(1)MNKKC(2)KC(3)YPR-OH [Peptide 6]	0.0724 µM·h	48.4 nM	55.8 min	> 3000 nM	>7900	> 3000 nM	>7900	285 nM	747	0.38 nM	–
H-NIDMRC(1)SASVEC(2)KQKC(3)LKAIGSIFGKC(1)MNKKC(2)KC(3)YPR-OH [Peptide 9]	0.0983 µM·h	76.9 nM	37.2 min	> 3000 nM	>6800	> 3000 nM	>6800	376 nM	857	0.44 nM	–
H-NID[Nle]RC(1)SASVEC(2)KQKC(3)LKAIGSIFGKC(1)[Nle]NKKC(2)KC(3)YPR-OH [Peptide 98]	0.085 µM·h	46.5 nM	65.4 min	> 3000 nM	>11300	> 3000 nM	>11300	2060 nM	7756	0.27 nM	1.2 nM
H-NMDMRC(1)SASVEC(2)AQKC(3)LKAIGSIFGKC(1)MNKKC(2)KC(3)YPR-NH2 [Peptide 31]	0.0467 µM·h	33.3 nM	44.4 min	> 3000 nM	>22000	> 3000 nM	>22000	666 nM	4897	0.14 nM	0.41 nM
H-NMDMRC(1)SASVEC(2)KQKC(3)LYAIGSIFGKC(1)MNKKC(2)KC(3)YPR-NH2 [Peptide 54]	0.0311 µM·h	50 nM	52.2 min	> 3000 nM	>10300	> 3000 nM	>10300	149 nM	514	0.29 nM	–
H-N[Nle]D[Nle]RC(1)SASVEC(2)KQKC(3)KAIGSIFGKC(1)[Nle]NKKC(2)KC(3)YPR-NH2 [Peptide 50]	–	–	–	946 nM	707	> 3000 nM	>2200	164 nM	123	1.34 nM	1 nM
H-N[Nle]D[Nle]RC(1)SASVEC(2)KQKC(3)LKAIGSPFGKC(1)[Nle]NKKC(2)KC(3)YPR-NH2 [Peptide 63]	–	–	–	2350 nM	9102	> 3000 nM	>11600	449 nM	1740	0.26 nM	0.44 nM
H-N[Nle]D[Nle]RC(1)SHSVEC(2)KQKC(3)LKAIGSIFGKC(1)[Nle]NKKC(2)KC(3)YPR-NH2 [Peptide 48]	–	–	–	609 nM	1134	> 3000 nM	>5600	772 nM	1438	0.54 nM	0.83 nM
H-N[Nle]S[Nle]RC(1)SASVEC(2)KQKC(3)LKAIGSIFGKC(1)[Nle]NKKC(2)KC(3)YPR-NH2 [Peptide 47]	–	–	–	1400 nM	4359	> 3000 nM	>9400	302 nM	943	0.32 nM	0.79 nM
H-PIE[Nle]RC(1)SASVEC(2)KQKC(3)LKAIGSIFGKC(1)[Nle]NKKC(2)KC(3)YPR-OH [Peptide 99]	–	–	–	> 3000 nM	>7800	> 3000 nM	>7800	1760 nM	4561	0.39 nM	1.8 nM
H-P[Nle]D[Nle]RC(1)SASVEC(2)KQKC(3)LKAIGC(4)IFGKC(1)[Nle]NKKC(2)KC(3)YPC(4)-NH2 [Peptide 85]	–	–	–	1220 nM	1949	> 3000 nM	>4800	624 nM	995	0.63 nM	0.81 nM
H-P[Nle]E[Nle]RC(1)SASVEC(2)KQKC(3)LAAIGSIFGKC(1)[Nle]NKKC(2)KC(3)YPR-NH2 [Peptide 101]	–	–	–	> 3000 nM	>16200	> 3000 nM	>16200	311 nM	1689	0.18 nM	0.34 nM
H-RC(1)SASVEC(2)KQKC(3)LKAIGSIFGKC(1)[Nle]NKKC(2)KC(3)YPR-NH2 [Peptide 111]	–	–	–	1300 nM	3290	> 3000 nM	>7600	280 nM	708	0.4 nM	0.52 nM
H-S[Nle]DERC(1)SASVEC(2)KQKC(3)LKAIGSIFGKC(1)MNKKC(2)KC(3)YPR-NH2 [Peptide 78]	–	–	–	> 3000 nM	>10600	> 3000 nM	>10600	122 nM	430	0.28 nM	0.55 nM
H-S[Nle]D[Nle]RC(1)SASVEC(2)GQKC(3)LKAIGSIFGKC(1)MNKKC(2)KC(3)YPR-NH2 [Peptide 73]	–	–	–	> 3000 nM	>27700	> 3000 nM	>27700	373 nM	3438	0.11 nM	0.3 nM
H-S[Nle]D[Nle]RC(1)SASVEC(2)KQKC(3)LKAIGSIFGKC(1)MNKKC(2)KC(3)[F(4-NH2)]PR-NH2 [Peptide 72]	–	–	–	> 3000 nM	>12200	> 3000 nM	>12200	423 nM	1720	0.25 nM	0.79 nM
H-[Nle]D[Nle]RC(1)SASVEC(2)KQKC(3)LKAIGSIFGKC(1)[Nle]NKKC(2)KC(3)YPR-OH [Peptide 97]	–	–	–	> 3000 nM	>17800	> 3000 nM	>17800	1860 nM	11034	0.17 nM	0.55 nM
